# Results from article PMC3173463, “Discovery of Dual-Action Membrane-Anchored Modulators of Incretin Receptors” (PLoS ONE, 2011).
# Where no end group is shown, it is not given here.
# Assays:
# HA-tagged GIP-R = HA-tagged GIP-R cell surface expression by ELISA; type: cell-based, human; details: HEK 293, HA-GIPR, ELISA 48 hours after transfection, soluble ligand added 24 h after transfection; Figure 4A
# Procedure: The impact of soluble peptide (A), tethered ligands (B) and the interaction between soluble and tethered ligands on HA-GIPR surface expression (C) was measured by ELISA. HEK 293 cells were transfected with a plasmid encoding the HA-tagged GIP-R, with or without increasing amounts of a tethered ligand cDNA. Twenty four hours after transfection, soluble ligands were added in selected wells, as indicated. In each experiment, receptor expression was evaluated 48 hours after transfection. […] Data represent the mean ± SEM from at least 4 independent experiments, each performed in 12 replicates. The expression of HA-GIPR in the absence vs presence of soluble or tethered ligand were compared by analysis of variance followed by Dunnett's post-test; significance, *, p<0.05; **, p<0.01.
# The surface expression levels of myc-tagged tethered ligands or HA-tagged GIP-Rs were assessed using a previously-established procedure [15], [18]. HEK293 cells grown in 96-well clear Primaria plates (BD Biosciences, Bedford, MA) were transiently transfected with either pcDNA1.1 or a cDNA encoding the relevant epitope-tagged proteins (tethered ligand and/or GIP-R). […] Light absorbance at 450 nm was quantified as a measure of protein expression) using a SpectraMax^R microplate reader.
# GIPR-CHE = test: Confocal microscopy of GIPR-CHE subcellular distribution; type: cell-based, human; details: HEK 293, 18 hours treatment, Figure 5A
# Procedure: The impact of selected soluble peptides (A) and tethered ligands (B) on the subcellular distribution of GIPR-CHE was studied using confocal microscopy. HEK 293 cells were transiently transfected with a plasmid encoding the GIPR-CHE, with or without cDNA encoding a GFP-tagged tethered ligand. Twenty-four hours later, the cells were treated for 18 hours with a soluble peptide or the corresponding vehicle, as indicated. The subcellular distribution of receptor was then visualized.
# Cells were transfected with plasmids encoding GIPR-CHE and tEXE4-GFP or tGLP1-GFP. Twenty-four hours later, the cells were treated for 18 h with media containing 100 nM of soluble GIP, followed by confocal microscopy imaging.
# HEK293 cells were plated at a density of 150,000 cells per dish onto poly-L-lysine coated 35 mm glass bottom dishes (MatTek Corporation, Ashland, MA) and grown for 1 day to ∼60–80% confluency. Cells were then transfected with cDNA encoding GIPR-CHE and a GFP-tagged tethered ligand construct. In some experiments, soluble peptides were added 24 hours after transfection and cells were incubated at 37°C for an additional 18–24 hours before imaging. Forty eight hours following transfection, the cells were washed once with PBS and fixed with 4% paraformaldehyde in PBS for 10 minutes. […]
# GLP-1R = target: T1, GLP-1R (Homo sapiens, UniProt P43220); test: CRE luciferase reporter gene assay, membrane-tethered ligand co-transfected with GLP-1R; type: cell-based; details: CRE6X-LUC, relative to wild-type tethered construct; Figure 2A-B
# T1 construct: expressed in transfected cells; host or cells: HEK293 cells, transient transfection, pcDNA1.1 plasmid
# T1 sequence (P43220 24-463): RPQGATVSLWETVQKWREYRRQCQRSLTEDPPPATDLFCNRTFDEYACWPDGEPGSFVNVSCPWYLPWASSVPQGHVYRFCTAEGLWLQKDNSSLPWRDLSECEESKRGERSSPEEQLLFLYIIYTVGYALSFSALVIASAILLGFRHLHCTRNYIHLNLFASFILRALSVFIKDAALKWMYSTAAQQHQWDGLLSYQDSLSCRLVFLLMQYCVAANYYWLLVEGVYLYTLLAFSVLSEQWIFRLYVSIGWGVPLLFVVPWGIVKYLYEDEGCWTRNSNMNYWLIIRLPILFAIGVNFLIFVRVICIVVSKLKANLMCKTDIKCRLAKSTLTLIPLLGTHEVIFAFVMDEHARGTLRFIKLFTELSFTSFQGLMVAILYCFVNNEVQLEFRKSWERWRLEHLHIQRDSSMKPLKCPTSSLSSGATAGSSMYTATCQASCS
# Procedure: Figure 2 Activity and selectivity of wild-type and G^7/K^7 derivatives of tGLP-1 and tEXE4. […] HEK 293 cells were transiently transfected with cDNAs encoding the GLP-1R or GIP-R, a tethered ligand, and a CRE6X-LUC reporter gene construct. Twenty four hours post-transfection, ligand-induced activity was quantified as described in Methods. […] Data represent the mean ± SEM from at least 4 independent experiments, each performed at least in quadruplicate.
# Receptor-mediated signaling was assessed using a previously described luciferase assay, [18]. In brief, HEK293 cells were plated at a density of 3000–6000 cells per well into clear-bottom, white 96-well plates and grown for 1–2 days to ∼80% confluency. […] Following ligand stimulation, the medium was gently aspirated, the cells were lysed and luciferase activity was quantified using a TopCount NTX after addition of Steadylite^R reagent (PerkinElmer, Boston, MA). […] Substrate cleavage (an index of β-galactosidase expression was quantified by measurement of optical density at 420 nm using a SpectraMax^R microplate reader (Molecular Devices, Sunnyvale, CA). Corresponding values were used to normalize the luciferase data for transfection efficiency.
# GIP-R = target: T2, GIP-R (Homo sapiens, UniProt P48546); test: CRE luciferase reporter gene assay, soluble ligands on GIP-R expressing cells; type: cell-based; details: soluble peptides, 6 hours stimulation; Figure 3B
# T2 construct: expressed in transfected cells; host or cells: HEK293 cells, transient transfection, pcDNA1.1 plasmid
# T2 sequence (P48546 22-466): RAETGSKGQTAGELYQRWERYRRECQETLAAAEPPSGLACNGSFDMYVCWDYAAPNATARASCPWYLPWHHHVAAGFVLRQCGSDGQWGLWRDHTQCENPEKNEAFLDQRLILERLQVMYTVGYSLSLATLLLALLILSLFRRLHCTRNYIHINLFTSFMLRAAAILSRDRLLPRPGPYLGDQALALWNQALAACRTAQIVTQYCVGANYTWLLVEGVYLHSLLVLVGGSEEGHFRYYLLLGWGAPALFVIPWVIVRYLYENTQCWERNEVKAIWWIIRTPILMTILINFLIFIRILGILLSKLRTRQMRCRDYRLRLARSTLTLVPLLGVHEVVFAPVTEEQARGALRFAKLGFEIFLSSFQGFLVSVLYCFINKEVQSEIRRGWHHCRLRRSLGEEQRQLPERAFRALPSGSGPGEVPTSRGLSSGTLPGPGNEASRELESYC
# Procedure: HEK293 cells were transiently transfected with cDNAs encoding the indicated receptor and a CRE6X-LUC reporter gene construct. Twenty four hours post-transfection, cells were stimulated for 6 hours with soluble peptides; ligand-induced activity was then quantified.
# Receptor-mediated signaling was assessed using a previously described luciferase assay [15], [18]. In brief, HEK293 cells were plated at a density of 3000–6000 cells per well into clear-bottom, white 96-well plates and grown for 1–2 days to ∼80% confluency. Cells were then transiently transfected using Lipofectamine^R reagent (Invitrogen, Carlsbad, CA) with cDNAs encoding (i) a GPCR (or the empty expression vector), (ii) a tethered ligand (where applicable), (iii) the CRE6X-LUC reporter gene and (iv) β-galactosidase (as a control for transfection efficiency). For experiments investigating the agonist function of soluble peptides, tethered ligand cDNA was not included in the transfection reaction. Twenty four hours after transfection, cells were incubated with or without selected soluble peptide in serum-free medium for 6 hours. Following ligand stimulation, the medium was gently aspirated, the cells were lysed and luciferase activity was quantified using a TopCount NTX after addition of Steadylite^R reagent (PerkinElmer, Boston, MA).
Substance,GIP-R surface expression after prolonged incubation with soluble ligand (HA-tagged GIP-R),GIPR-CHE subcellular distribution after soluble peptide (GIPR-CHE),tethered ligand-induced activity at the GLP-1R (GLP-1R),agonist activity of soluble peptide at the GIP-R (GIP-R)
glucose-dependent insulinotropic polypeptide [GIP],markedly reduced,massive GIPR-CHE endocytosis,–,–
"[G^7]tGLP-1: membrane-tethered GLP-1 with glycine at position 7 (GAEGTFTSDVSSYLEGQAAKEFIAWLVKGRG; also: fused with epitope tag, linkers, membrane-anchoring sequence; UniProt P01275 98-128, looked up, variant H7G)",–,–,activity comparable to the corresponding unmodified ligands,–
glucagon-like peptide-1 [GLP-1],no effect,–,–,even lower potency agonist
